The record followed here is patent US9579325B2, “Modulators of TNF-α signaling” (Genzyme Corporation, priority 2000, dated 2017).

Data set [1] deals with Vascular Cell Adhesion Molecule (VCAM) expression in primary human umbilical vein endothelial cells. As to the kind of experiment: VCAM High Throughput Screen (TNF-α driven VCAM expression). Format: cell-based. Conditions: HUVEC, TNF 1.0 ng/ml. From the text: Description of Table V: The results shown in Table V were obtained using the TNF-α assays performed as described in the protocols entitled “Method for TNF High Throughput Screen” and “Method for VCAM High Throughput Screen”, which are detailed below. These assays measure a cellular response to TNF-α stimulation, and the data published in the table are expressed as percentage inhibitions. Percentage inhibition is computed on a scale of 0 to 100% where 0 percent inhibition means the compound has no effect in the assay (the response is indistinguishable from TNF-α treatment alone), and 100% inhibition means that when the compound is present at the stated concentration, the response in the assay is the same as if TNF-α were not added. These two assays measure two different outcomes of TNF-α treatment, cell death and Vascular Cell Adhesion Molecule (VCAM) expression, and capture two of TNF-α's many biological effects. TNF-α induced apoptosis is a mechanism by which TNF-α production during immune/inflammatory responses can lead to direct cellular and tissue damage. TNF-α VCAM expression in endothelial cells is a response that allows leukocytes to leave the blood and enter a site of immune/inflammatory response. Both of these activities could lead to pathology in immune/inflammatory diseases. In the first column of the table, the percentage inhibition of the TNF-α driven apoptosis assay when the compounds are tested at 1 μM concentration is presented. The second column in the table lists the IC50 for the compound, a standard measure using a dilution series in the assay, and fitting a sigmoidal curve to the resulting dose-response curve. The IC50 is the concentration (derived analytically from the sigmoidal function) at which the compound would inhibit 50% of the response in the assay. The third and fourth column list the corresponding analysis for the TNF-α driven VCAM assay. In Table VI, data corresponding to the data in column 1 of Table V is shown, with human cells replacing the mouse cells used in the high throughput screen. […] As a consequence, the compounds will have use in treating more than one TNF-α mediated condition, and may be selected according to the manner in which the condition manifests. This corresponds to the use of these compounds in the treatment of human disease.
• 1. Plate 4×10^4 L929 cells in 100 μl of complete EMEM in Costar 96 well plates in PM. • 2. The next day, pretreat with compound, inhibitor and control vehicle for 2 hours. • 3. After 2 hours pretreatment, add 10 μl 5 ng/ml human TNF-α and actinomycin D (40 μg/ml final concentration). • 4. Incubate overnight. • 5. In AM, remove supernatant. • 6. Wash on a plate washer (0.9% NaCl). • 7. […] Shake plates on orbital shaker and read at 595 nm on plate reader. […]

Data set [2] deals with L929 cells. As to the kind of experiment: TNF High Throughput Screen (TNF-α driven apoptosis assay). The conditions noted are these: Mus musculus, human TNF-α + actinomycin D, read-out: TNFα IC50. Format: cell-based, mouse. The procedure, abridged: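 Mouse L929 cells were pretreated with compound for 2 hours, then given human TNF-α plus actinomycin D (40 μg/ml final) overnight. Surviving cells were stained with crystal violet, solubilised in methanol and read at 595 nm. Values are % inhibition at 1 μM (0 = TNF alone, 100 = no TNF) or IC50 from sigmoidal fits of dilution series.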

Data set [3] concerns C57/BL mouse. As to the kind of experiment: Sepsis model: murine LPS-d-galactosamine model. Format: in vivo. Conditions: prevention of mortality over three days. The method, then:
Sepsis was induced in the C57/BL mouse by the intravenous injection of 20 ng of lipopolysaccharide/animal plus 20 mgs d-galactosamine/animal. Inhibition was measured as the prevention of mortality over a three day period. Compounds were administered intraperitoneally in 10% cremophore/10% ethanol/80% normal saline one hour before induction.

Data set [4] in a line: Pharmacokinetic parameters. Format: in vivo. Conditions: for half-life: unit and species not given, read-out: Pharmacokinetic Parameters t1/2 (converted).
The subject of data set [5] is male rats. As to the kind of experiment: Inflammatory Bowel Disease model: rat DNBS distal colitis. Format: in vivo. Conditions: 7 doses. How it is done: Groups of three male rats weighing 150+/−10 g and fasted for 24 hours were used. Distal colitis was induced by intracolonic instillation of 0.5 ml/rat DNBS (2,4-dinitrobenzene sulfonic acid, 60 mg/ml in ethanol 30%) after which air (2 ml) was gently injected through the cannula to ensure that the solution remains in the colon. A test compound was administered orally 24 and 2 hours before DNBS-instillation and then daily for 5 days in a total of 7 doses. The animals were sacrificed 24 hours after the final dose of test compound administration and each colon was removed and weighed.

Molecules are shown by their SMILES.

The IC50 is the concentration that gives 50% inhibition. With `COc1ccc(C(C(=O)NCC(c2ccccc2)c2ccccc2)N(CCc2c[nH]cn2)C(=O)c2ccccc2C(=O)c2ccccc2)cc1C` (stereo not shown) [Compound 42], the IC50 stood at 16 µM in data set [1] and 0.779 µM in data set [2].
`Cc1nn(-c2nccc(-c3ccccn3)n2)c(C)c1SCc1ccc(Cl)cc1` [Compound 119, 2-[4-(4-Chloro-benzylsulfanyl)-3,5-dimethyl-pyrazol-1-yl]-4-pyridin-2-yl-pyrimidine]: the IC50 in data set [1] was found to be 7.95 µM. Further, the “Sepsis: Murine LPS-d-galactosamine model % inhibition” value in data set [3] (200 mg/kg intraperitoneally one hour before induction) is on record as 33 @ 200 mg/kg %. Besides, in data set [4] (in vivo), the half-life is 2.3 h. Further, in data set [4] (species not given), the “Pharmacokinetic Parameters % oral bioavailability” value is reported as “Undetectable”. In addition, in data set [5] (100 mg/kg orally), the “Inflammatory Bowel Disease: Rat DNBS model % inhibition of colonic weight gain” value is recorded as 51% @ 100 mg/kg.
What is called bioavailability is dose-corrected exposure relative to a reference, in per cent. High values mean good availability, low ones poor availability. As for `O=C(c1ccccc1)c1ccccc1C(=O)N(CCc1c[nH]cn1)C(Cc1ccccc1)C(=O)NCC(c1ccccc1)c1ccccc1` (racemic) [Compound 43], the “Sepsis: Murine LPS-d-galactosamine model % inhibition” value in data set [3] (10 mg/kg intraperitoneally one hour before induction) was 33 @ 10 mg/kg %. The bioavailability in data set [4] (in vivo, po, species not given) is less than 1%. Also, in data set [4] (in vivo), the half-life is 3.6 h. Also, the “Inflammatory Bowel Disease: Rat DNBS model % inhibition of colonic weight gain” value in data set [5] (50 mg/kg orally) was determined as 31% @ 50 mg/kg. Moreover, in data set [2], the IC50 worked out at 2.98 µM.
As to `Cc1nn(-c2nccc(-c3ccccn3)n2)c(C)c1S(=O)(=O)Cc1ccc(Cl)cc1` [Compound 124, 2-[4-(4-Chloro-phenylmethanesulfonyl)-3,5-dimethyl-pyrazol-1-yl]-4-pyridin-2-yl-pyrimidine], the IC50 in data set [1] came out at 13.4 µM.
